For 70 molecules, cytotoxicity results are on record in ChEMBL document CHEMBL3507680, “University of Dundee, Gates Library screen for HepG2 cell viability”.

This data set is described as follows: Human HepG2 cell viability assay in 384 well format. Type of data set: toxicity, cell-based. On the set-up: dose 125 nL, time 70.5 hour; cytotoxicity at 70.5 h: concentration not given beside the values. As to conditions: HepG2 cells, read-out: Inhibition.
Turning to `COCC1COCCC12CCN(S(=O)(=O)c1ccccc1C)CC2` (stereo not given), the cytotoxicity at 70.5 h came to 7.67%.
The same measure for `Cc1nnc([C@H]2C[C@H]3OCC[C@H]3N(S(=O)(=O)CC(C)C)C2)o1`: -1.29%; for `CCCS(=O)(=O)N1CCC(NC(=O)c2cc(C)c(CC)s2)CC1`: -12.1%; for `CC(C)N1CCC(C(=O)NC[C@H]2CCc3ccccc3O2)CC1`: -17.4%.
The same measure for `CCn1cnc(NC(=O)N2CCCC(c3ccccc3)CC2)n1` (stereo not given): -6.51%.
The same measure for `Cn1ncc2c(N3CC(N4CCCCC4)C3)nc(C3CCCC3)nc21`: -4.55%; for `Cc1ccc(CN2CCC(CNC(=O)Cn3cncn3)CC2)cc1`: -6.33%; for `O=C(C1CCOCC1)N1CCO[C@@H]2[C@@H](OCc3ccncc3)CC[C@@H]21`: -22.7%.
For `Cc1nn(C)c2cn(C(C)C(=O)NCc3ccc(F)cc3)nc12` (stereo not given), the cytotoxicity at 70.5 h is -3.15%.
In the case of `O=S1(=O)NC2(CCCN(Cc3ccc(Cl)cc3)C2)COc2ccccc21` (stereo not given), the cytotoxicity at 70.5 h came to 22.5%.
Regarding `COCC(=O)N1CCC(Oc2cccc(C)c2)CC1`, the cytotoxicity at 70.5 h is -16%.
In the case of `CCN(CC)C(=O)Cn1ccc2cc(NC(C)=O)ccc21`, the cytotoxicity at 70.5 h was -3.27%.
As to `c1ccc(-c2ncc(CNC3CCc4ncnn4C3)cn2)cc1` (stereo not given), the cytotoxicity at 70.5 h is -11%.
With `CCN1CC(C(=O)N2CCN(c3nsc4ccccc34)CC2)CCC1=O` (stereo not given), the cytotoxicity at 70.5 h was determined as 19.6%.
The same measure for `O=S(=O)(NC1CCCCC12OCCO2)c1cc(Cl)cc(Cl)c1` (stereo not given): -3.17%; for `CCc1noc(C)c1C(=O)NCc1cc[nH]n1`: 0.164%; for `Cc1ncoc1C(=O)N1CC[C@@]2(C[C@H](NS(C)(=O)=O)CCO2)C1`: -7.59%.
Turning to `CCc1ccc(C(=O)N2CCN(CC(O)c3ccccc3)CC2)o1` (stereo not given), the cytotoxicity at 70.5 h is 1.67%.
As to `CN1C[C@]2(CC[C@@H](C(=O)N3CCOCC3)CC2)Oc2ccccc2C1=O`, the cytotoxicity at 70.5 h was -5.13%.
Consider `COc1ccc(CN2CCN(CCn3ccnc3)CC2)cc1F`, for which the cytotoxicity at 70.5 h was -13.3%.
The same measure for `CC(Nc1ccc(F)cc1)c1nnnn1-c1ccccc1` (stereo not given): -109%; for `CC(=O)N1CCc2c(nc(N(C)C)nc2NCCC2CCCCO2)C1` (stereo not given): -5.03%.
On to `Cc1cc(NC(=O)NCCCSc2nncn2C)no1`, for which the cytotoxicity at 70.5 h was -11.7%.
Take `Cc1nc(C)c(-c2ccn(CC(=O)Nc3cnn(C)n3)n2)s1`: the cytotoxicity at 70.5 h stood at 8.07%.
Consider `Cc1cc(Oc2ccccc2C)nc(C2CCCN2)n1` (stereo not given), for which the cytotoxicity at 70.5 h amounted to 9.24%.
To `CN1CCC2(Cc3ccccc3CN(C(=O)c3ccc(Cl)cc3)C2)C1` (stereo not given) belongs 35.9%.
The same measure for `CO[C@H]1CO[C@@]2(CCCN(C(=O)N3CCCC3)C2)C1`: 1.63%; for `CCOC(=O)N1CCC(NCC2CCN(c3cnn(C)c(=O)c3)C2)CC1` (stereo not given): -6.78%; for `CN(Cc1cccnc1)C[C@@H]1OC[C@H]2CN(C(=O)C3CC3)CC[C@H]21`: -5.43%.
To `Fc1cnc(N2CCCn3c(CN4CCOCC4)nnc3C2)nc1` belongs 25.5%; to `Cc1cc(CN2CCN(C(=O)NC(C)Cn3ccnc3)CC2)on1` (stereo not given), 29.6%; to `CCC(C(=O)Nc1ccc2cn(CC)nc2c1)N1CCCC1=O` (stereo not given), -24.8%.
For `CC(=O)N1CCCN(C(=O)NCCNc2cnccn2)CC1`, the cytotoxicity at 70.5 h was -2.47%.
To `CC(C)[C@@H]1CN(C(=O)C2(c3ccccc3)CCN(C)CC2)C[C@H]1N(C)C` belongs 9.05%; to `O=C(Cc1ccc(F)cc1)N1CCCCC1c1ccn2ccnc2n1` (stereo not given), -12%; to `O=C1CC(c2ccc(C(=O)O)cc2)c2c(sc3c2CCCC3)N1` (stereo not given), -9.3%.
The same measure for `COCC1CN(C(=O)Nc2cc(Br)ccc2F)CCO1` (stereo not given): -10.1%; for `Cc1ccnc(C2CCN(C(=O)c3cnn(C)c3)C2)n1` (stereo not given): 12.7%.
On to `O=C1N(c2cccc(Cl)c2)Cc2nc(=O)n(Cc3cccc(F)c3)n21`, for which the cytotoxicity at 70.5 h amounted to 0.196%.
On to `COc1cccc(C(=O)NS(=O)(=O)c2cc(Cl)sc2Cl)c1OC(F)F`, for which the cytotoxicity at 70.5 h is -7.95%.
To `COCCOCC(=O)Nc1ccc(C)cc1Cl` belongs -0.473%; to `CC(=O)NC(C)(C)C(=O)Nc1ncc(Cc2ccc(C)c(F)c2)s1`, -0.712%; to `Cc1nc2n(n1)CC(NCc1cc(Cl)c3c(c1)OCCCO3)CC2` (stereo not given), -6.52%.
Turning to `Cc1cncc(C(=O)N(c2ccc(F)cn2)C2CCOCC2)c1`, the cytotoxicity at 70.5 h is 5.37%.
Turning to `O=C([C@@H]1CCO[C@@H]2CCN(Cc3cccs3)C[C@H]21)N1CCCCO1`, the cytotoxicity at 70.5 h is -18.4%.
To `Cc1nc(C)n(CC2CCCCN2CCS(C)(=O)=O)n1` (stereo not given) belongs 12.7%; to `Cc1ccc(NC2CCN(C(=O)COc3ccccc3)CC2)nn1`, -15.7%.
As to `CCS(=O)(=O)CC(=O)NC1(c2ccc(Cl)c(Cl)c2)CC1`, the cytotoxicity at 70.5 h is -2.35%.
To `CC(C)CN(CC(O)c1ccc(F)cc1)C(=O)c1cc[nH]n1` (stereo not given) belongs -3.9%.
The same measure for `O=C(c1ccccn1)N1CC[C@H]2C(=O)N(c3ccsc3)CCO[C@H]2C1`: -15.7%.
The same measure for `c1ncn(CC2CN(Cc3noc(C4CC4)n3)CCO2)n1` (stereo not given): 29.1%.
As to `Cc1cccc2[nH]c(C3CCCN(Cc4ccc(CO)o4)C3)nc12` (stereo not given), the cytotoxicity at 70.5 h was 4.96%.
The same measure for `Cc1nn(C)c(N2CCOCC2)c1CNC1CCN(C2CC2)CC1`: -6.05%.
The same measure for `NC(=O)c1ccc(-n2ccnc2-c2cccc(O)c2)cc1N1CCCC1`: -6.04%; for `COCCN1CCOCC2(CCCN(Cc3cccc(F)c3)C2)C1` (stereo not given): -5.38%.
The same measure for `Fc1ccc(-c2n[nH]cc2CNCCn2cccn2)cc1`: -4.83%.
`O=C1CCN(Cc2cnc3c(-c4ccccc4)cnn3c2)CCN1`: the cytotoxicity at 70.5 h was -9.5%.
Consider `Cc1nc(C(C)Nc2ncnc3c2CCNCC3)c(C)s1` (stereo not given), for which the cytotoxicity at 70.5 h is -4.99%.
The same measure for `CC(C)(C)C(=O)N1CCCC(c2ncncc2-c2ccncc2)C1` (stereo not given): -4.45%; for `Cc1nn(C)c(C)c1NC(=O)c1cccc(CN2CCS(=O)(=O)CC2)c1`: -6.09%.
As for `CN(C)C(=O)CN1CC[C@@H]2O[C@@H](COCc3cccnc3)CC[C@@H]21`, the cytotoxicity at 70.5 h was -1.43%.
Regarding `O=C1CC(N(C(=O)CCc2c[nH]c3ccccc23)C2CC2)C(=O)N1` (stereo not given), the cytotoxicity at 70.5 h was -14.1%.
Consider `Cc1nnc(CN(Cc2ccccc2Br)C2CC2)o1`, for which the cytotoxicity at 70.5 h is -8.83%.
The same measure for `O=C(Cn1ccc2sccc2c1=O)NCc1ccc(F)cc1`: -9.4%; for `Cn1ccc(N2CCCC(NC(=O)c3ccsc3)C2=O)n1` (stereo not given): 20.9%.
On to `O=C(c1cc(F)ccc1O)N1CCN(C2CCSC2)CC1` (stereo not given), for which the cytotoxicity at 70.5 h is -8.37%.
To `O=C1CC[C@]2(CC[C@@H](NC3CCOCC3)CC2)N1Cc1ccccc1` belongs -2.63%; to `Cc1ccc(-c2cn3c(n2)CO[C@@H](CNCc2nccs2)C3)cc1`, -2.93%; to `COc1nsc2nc(C3CCCN3c3ncccn3)ccc12` (stereo not given), -7.28%.
The same measure for `NC(=O)Cn1ccnc1C1CCCN(Cc2ccccc2OC(F)F)C1` (stereo not given): -6.45%.
